We go through three compounds from patent US5155215A, “Polychelating agents for image and spectral enhancement (and spectral shift)” (priority 1990, dated 1992).

For series [1] the following is noted: cited from earlier work.
For series [2] the following is noted: precipitation at body pH; cited from earlier work.
In series [3] the test system is 7777-strain Morris hepatoma. Kind of series: In vivo NMR image enhancement of a primary liver tumor (hepatoma). To be noted: after injection.
Description: After two to three weeks the local tumors had reached an average diameter of 0.5 and 1.0 cm. The rats were then imaged both before and after i.v. injections of Gd-DTPA or microsphere Gd-DTPA. MR imaging was performed in a 30cm rf coil with a 0.35 Tesla, Diasonics clinical MRI system (as described above). Post-contrast images were obtained serially beginning immediately after injection and continuing for several hours thereafter.
The nature of series [4]: MR imaging and proton T1 relaxation times in rats (DEAE-dextran agents). Type of series: in vivo, Sprague-Dawley rats. Particulars: Gd 0.30 (polymer, dimeglumine) or 0.15 (microspheres) mmol/kg. Here is the method: Test materials were injected intravenously into 500 gm Sprague-Dawley rats. at approximately 30 minutes, the rats were placed in the head coil of a 0.35 Tesla clinical imaging device (Diasonics Corp.), and T1-weighted images (using both a spin-echo pulse sequence at TR's of 0.5, 1.5 and 2.0, and an inversion recovery sequence) were obtained on image slices of 0.5 cm thickness taken through the liver and kidneys. T1 relaxation times were determined from the TR=0.5 and 2.0 data using area-averaging of signal intensities and a proprietary software program for calculations. At the completion of imaging, the rats were sacrificed by decapitation (exsanguination). Their livers, kidneys and spleens were excised, tested for in vitro correlations with the in vivo changes in proton T1 relaxation times and then placed in buffered formalin fixative for histopathologic evaluation.

Series [5] can be described thus: Liver T1 decrease / liver image enhancement, effective dose. Type of series: in vivo, mice and rats. To be noted: 30 min.
A short description of series [6]: In vitro T1 relaxation of water protons (IBM PC 20 Minispectrometer, 20 MHz). The class given is physicochemical.
Description: Microspheres were suspended at a concentration of 1 mg/ml by brief sonification. Because albumin microspheres have a fast-release (surface) component of Gd:DTPA as well as a controlled-release (interior) component, the spheres were washed, resuspended, and diluted serially for testing.
Thus, it was not necessary to wash and resuspend the materials prior to NMR testing.
Series [7] can be described thus: Enhanced T1-weighted blood flow images in cardiac chambers. Type of series: in vivo, rats. Particulars: i.v., rat heart chambers.
Description: Gd:DTPA-dextran microspheres (at 0.03 mmoles Gd/kg) were injected i.v. at time zero into Sprayer-Dawley rats and images were obtained immediately and serially each 5 minutes×4 (spin-echo, multi-echo, TR=0.5 & 1.5).
The conditions of series [8]: cited from earlier work. This is another data set of the same source.
For series [9], the system named is human brain tumors; renal tumors. To be noted: cited from earlier work.
The nature of series [10]: In vivo NMR enhancement of normal rat tissues, image T1 and enhancement (0.35 Tesla Diasonics). Set-up: species or system Sprague-Dawley rats. From the text: Sprague-Dawley rats were imaged using a 0.35-Tesla, Diasonics clinical MR imaging system and a 30-cm rf coil. Three clinically relevant pulse sequences were used: 1) spin-echo with a TR of 0.5 seconds (for T1-weighted images), 2) inversion-recovery (IR) (for T1-weighted images), and 3) spin-echo with a TR of 2.0 seconds (for T2-weighted images). Diasonics software was used to calculate the area-averaged tissue intensities before and after injection of contrast agents. Dual pulse sequences (spin-echo, with TR's of 0.5 and 1.5 seconds or 1.0 and 2.0 seconds) were also used to calculate the in vivo T1 relaxation times. At the conclusion of imaging, the liver, spleen and kidneys were excised and their T1 (IR) and T2 (Carr-Purcell-Meiboom-Gill) relaxation times were determined at 37° C., using an IBM pC20 Minispectroneter. For these in vitro experiments, uninjected rats were used in place of preinjection controls.

A short description of series [11]: Proton T1 relaxation times in mouse organs (DEAE-dextran agents). Type of series: in vivo, CBA mice. Here is the method: Test materials were injected i.v. into 25 gm CBA mice. At 30 min the mice were sacrificed by decapitation (exsanguination) and the excised livers and kidneys assessed for changes in proton T1 relaxation times (20 MHz; IR pulse sequence). Doses of test materials were made equivalent based on in vitro potency (ID50 analysis).

Series [12] is described as follows: T1 of freshly excised rat spleens after injection. Type of series: in vivo, Sprague-Dawley rats.
Excerpt: Post-contrast images were obtained serially beginning immediately after the i.v. injection of contrast agents and continuing for several hours thereafter.
The nature of series [13]: Whole-organ liver T1 after albumin microspheres. The class given is in vivo, CBA mice. Particulars: 0.1 mmol/kg Gd, 30 min.
Description: Microspheres (Gd:DTPA:dimeglumine:albumin) were tested in vivo by injecting them intravenously into 25 gm CBA mice (2 animals per group), allowing 30 minutes for uptake and sequestration by liver Kupffer cells, sacrificing the mice, and testing the excised organs. […] Radioisotope was quantified in a standard gamma counter.
The T1-weighted proton relaxation times of mouse livers were quantified by determining the whole-organ T1 relaxation time in a 20 MHz NMR spectrometer.

For the compound `O=C(O)CN1CCN(CC(=O)O)CCN(CC(=O)O)CCN(CC(=O)O)CC1` [DOTA, 1,4,7,10-tetraazacyclododecane-N,N',N"-tetraacetic acid], in series [1] (wide range of Larmor frequencies), the “Relaxivity relative to Gd-DTPA” value is recorded as “approximately 2 times greater”.

As for `[Gd]` [Gd, gadolinium], the Paramagnetic dipole in series [1] (Gd, seven unpaired 4f electrons) is reported as 7.9 Bohr magnetons. Besides, the “Toxicity of the free form” value in [2] is “quite toxic”.

As for `CNC[C@H](O)[C@@H](O)[C@H](O)[C@H](O)CO.CNC[C@H](O)[C@@H](O)[C@H](O)[C@H](O)CO.O=C([O-])CN(CCN(CC(=O)[O-])CC(=O)O)CCN(CC(=O)[O-])CC(=O)O.[Gd+3]` [Gd:DTPA dimeglumine], the “Time by which tumor contrast was significantly reduced” value in series [3] turned out to be 1.5 h. In addition, the “T1 (% of control), kidney, in vitro” value in series [4] (excised kidney, control 492 msec) worked out at 25%. For the same compound, in series [4] (excised liver, control 275 msec), the “T1 (% of control), liver, in vitro” value worked out at 88%. In series [4] (excised spleen, control 464 msec), the “T1 (% of control), spleen, in vitro” value amounted to 86%. Besides, the “T1 (% of control), kidney, in vivo” value in series [4] (kidney, imaging) came out at 57%. Also, the “T1 (% of control), liver, in vivo” value in [4] (liver, imaging) was 83%. Also, the “Change in liver T1's at the usual 30-minute imaging interval” value in series [5] was “minimal changes in liver T1's”. Also, the IC50 in [6] (Gd, read-out: ID50 as molar concentration of Gd) turned out to be 90 µM. Also, the “ID50 (total weight)” value in [6] (T1 to 50% of phosphate-buffered saline) is 0.084 mg/mL. Further, the “Material concentration required to produce a 50% decrease in the T1 of water protons” value in series [6] (total material) was 90 µg/mL. Besides, in series [7], the “Enhancement of blood flow images” value was “almost completely ineffective”. In [8] (Weinman et al.), the “Bloodstream clearance (1/2)” value is 20 min and the “Quantity cleared by the kidneys” value was more than 90%. Besides, in series [8] (in vivo), the Imaging window result is recorded as “ca. 30 minutes” and the “Number of optimal images after each injection” value is “ca. 2”. Moreover, the “Relaxivity at higher proton Larmor frequencies” value in series [1] (typically 15 Mhz) is recorded as “marked decrease in relaxivity”. The “Enhancement of renal tumors” value in [9] (human, in vivo) is “enhanced satisfactorily”. The “Enhancement of human brain tumors” value in [9] (preliminary clinical results) is on record as “almost all human brain tumors undergo significant enhancement”. Also, the “% Decrease in T1, kidney (30 min post vs. pre)” value in series [10] (kidney, 30 min, image T1) worked out at 55.7%. For the same compound, in [10] (liver), the “Time after which all liver enhancement was lost” value worked out at 50 min. For the same compound, in [10] (liver, 30 min, image T1), the “% Decrease in T1, liver (30 min post vs. pre)” value stood at 24.6%. In series [10] (visual inspection), the “Bone marrow image enhancement” value is “not Gd:DTPA dimeglumine”. Further, in [11] (kidney, 30 min, 0.23 mmol/kg DEAE agents, 0.47 mmol/kg Gd:DTPA dimeglumine, control 385 msec), the “T1 (% of control), kidney” value was determined as 24%. For the same compound, the “T1 (% of control), liver” value in [11] (liver, 30 min, 0.23 mmol/kg DEAE agents, 0.47 mmol/kg Gd:DTPA dimeglumine, control 330 msec) is given as 83%. Moreover, in series [11] (mouse liver, very high doses), the “Effectiveness at decreasing the T1 of liver” value was “relatively ineffective”. The “% Decrease in T1 of Spleen (35 min post vs. pre)” value in series [12] is given as 14.4%. Moreover, the “Liver T1, % of Control” value in series [13] is listed as 98.5%. In addition, the “Liver T1” value in series [13] (saline 332) was 327 ms.
